Legend:
[1] = physchem; conditions: Soerensen buffer
[2] = target: T1, 5-hydroxytryptamine receptor 2A (Rattus norvegicus, UniProt P14842); assay: biochemical
[3] = target: T2, D(2) dopamine receptor (Homo sapiens, UniProt P14416)
[4] = target: 5-hydroxytryptamine receptor 1D (Homo sapiens, UniProt P28221)
[5] = target: 5-hydroxytryptamine receptor 2B (Homo sapiens, UniProt P41595)
[6] = target: 5-hydroxytryptamine receptor 5A (Homo sapiens, UniProt P47898)
[7] = target: 5-hydroxytryptamine receptor 6 (Homo sapiens, UniProt P50406)
[8] = target: D(1A) dopamine receptor (Homo sapiens, UniProt P21728)
[9] = target: D(4) dopamine receptor (Homo sapiens, UniProt P21917)
[10] = target: D(1B) dopamine receptor (Homo sapiens, UniProt P21918)
[11] = target: Beta-3 adrenergic receptor (Homo sapiens, UniProt P13945)
[12] = target: Histamine H1 receptor (Homo sapiens, UniProt P35367)
[13] = target: Histamine H2 receptor (Homo sapiens, UniProt P25021)
[14] = target: Histamine H3 receptor (Homo sapiens, UniProt Q9Y5N1)
[15] = target: Alpha-1A adrenergic receptor (Homo sapiens, UniProt P35348)
[16] = target: T3, Alpha-1B adrenergic receptor (Homo sapiens, UniProt P35368)
T3 sequence (P35368 whole entry): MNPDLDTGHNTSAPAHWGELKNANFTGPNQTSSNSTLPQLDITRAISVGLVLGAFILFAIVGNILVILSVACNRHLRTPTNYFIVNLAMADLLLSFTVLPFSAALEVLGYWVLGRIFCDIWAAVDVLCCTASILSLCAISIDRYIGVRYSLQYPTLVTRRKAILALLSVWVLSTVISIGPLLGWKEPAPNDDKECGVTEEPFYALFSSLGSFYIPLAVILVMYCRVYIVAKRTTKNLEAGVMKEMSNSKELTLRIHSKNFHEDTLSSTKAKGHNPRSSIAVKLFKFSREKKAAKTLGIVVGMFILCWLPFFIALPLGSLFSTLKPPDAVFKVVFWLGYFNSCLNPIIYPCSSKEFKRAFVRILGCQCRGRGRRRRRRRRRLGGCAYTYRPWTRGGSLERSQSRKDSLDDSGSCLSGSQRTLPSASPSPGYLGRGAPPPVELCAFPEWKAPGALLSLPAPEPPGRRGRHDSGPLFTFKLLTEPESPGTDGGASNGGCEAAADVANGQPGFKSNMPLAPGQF

[17] = target: T4, Alpha-2A adrenergic receptor (Homo sapiens, UniProt P08913)
T4 sequence (P08913 whole entry): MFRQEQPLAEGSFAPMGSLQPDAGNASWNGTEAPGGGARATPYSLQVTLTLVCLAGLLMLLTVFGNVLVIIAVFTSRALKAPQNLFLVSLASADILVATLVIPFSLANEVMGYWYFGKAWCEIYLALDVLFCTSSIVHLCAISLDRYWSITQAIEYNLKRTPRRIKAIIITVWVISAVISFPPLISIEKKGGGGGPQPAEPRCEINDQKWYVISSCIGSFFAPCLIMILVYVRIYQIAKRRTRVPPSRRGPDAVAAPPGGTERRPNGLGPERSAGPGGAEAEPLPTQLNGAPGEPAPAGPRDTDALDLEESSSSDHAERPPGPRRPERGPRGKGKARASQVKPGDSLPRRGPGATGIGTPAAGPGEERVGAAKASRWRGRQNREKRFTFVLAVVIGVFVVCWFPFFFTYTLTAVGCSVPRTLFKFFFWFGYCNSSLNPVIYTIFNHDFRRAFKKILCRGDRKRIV

[18] = target: Sodium-dependent serotonin transporter (Homo sapiens, UniProt P31645)
[19] = target: Sodium-dependent dopamine transporter (Homo sapiens, UniProt Q01959)
[20] = target: Mu-type opioid receptor (Homo sapiens, UniProt P35372)
[21] = target: Alpha-2C adrenergic receptor (Homo sapiens, UniProt P18825)
[22] = target: T1, 5-hydroxytryptamine receptor 2A; assay: Displacement of [3H]altanserine from rat cortical membrane 5HT2A receptor
[23] = target: T2, D(2) dopamine receptor; assay: Binding affinity to dopamine D2 receptor by competitive binding experiment

T2 sequence (P14416 whole entry): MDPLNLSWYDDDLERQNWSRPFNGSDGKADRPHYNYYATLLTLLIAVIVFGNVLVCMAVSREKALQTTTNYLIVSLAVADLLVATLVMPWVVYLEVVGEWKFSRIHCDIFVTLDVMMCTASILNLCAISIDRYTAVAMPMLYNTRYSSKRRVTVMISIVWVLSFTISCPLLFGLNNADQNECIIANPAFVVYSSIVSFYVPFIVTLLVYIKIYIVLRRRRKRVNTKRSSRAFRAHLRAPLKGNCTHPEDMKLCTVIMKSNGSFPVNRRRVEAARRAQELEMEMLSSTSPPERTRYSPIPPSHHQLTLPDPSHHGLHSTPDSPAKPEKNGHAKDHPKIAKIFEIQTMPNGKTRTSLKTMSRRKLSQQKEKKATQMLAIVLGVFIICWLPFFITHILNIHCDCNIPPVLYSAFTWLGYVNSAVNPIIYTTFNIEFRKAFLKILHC
Sequence of 5-hydroxytryptamine receptor 1D (P28221 whole entry): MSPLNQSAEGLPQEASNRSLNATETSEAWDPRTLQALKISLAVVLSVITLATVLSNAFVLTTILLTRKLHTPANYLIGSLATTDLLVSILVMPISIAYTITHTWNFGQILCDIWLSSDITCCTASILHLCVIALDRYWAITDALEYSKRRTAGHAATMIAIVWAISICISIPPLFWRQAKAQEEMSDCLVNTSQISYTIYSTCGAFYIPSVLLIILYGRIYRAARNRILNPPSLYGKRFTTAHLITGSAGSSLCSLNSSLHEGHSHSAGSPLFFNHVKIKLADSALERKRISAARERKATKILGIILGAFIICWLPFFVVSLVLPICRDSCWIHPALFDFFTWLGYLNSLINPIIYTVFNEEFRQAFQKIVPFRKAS
Sequence of Sodium-dependent serotonin transporter (P31645 whole entry): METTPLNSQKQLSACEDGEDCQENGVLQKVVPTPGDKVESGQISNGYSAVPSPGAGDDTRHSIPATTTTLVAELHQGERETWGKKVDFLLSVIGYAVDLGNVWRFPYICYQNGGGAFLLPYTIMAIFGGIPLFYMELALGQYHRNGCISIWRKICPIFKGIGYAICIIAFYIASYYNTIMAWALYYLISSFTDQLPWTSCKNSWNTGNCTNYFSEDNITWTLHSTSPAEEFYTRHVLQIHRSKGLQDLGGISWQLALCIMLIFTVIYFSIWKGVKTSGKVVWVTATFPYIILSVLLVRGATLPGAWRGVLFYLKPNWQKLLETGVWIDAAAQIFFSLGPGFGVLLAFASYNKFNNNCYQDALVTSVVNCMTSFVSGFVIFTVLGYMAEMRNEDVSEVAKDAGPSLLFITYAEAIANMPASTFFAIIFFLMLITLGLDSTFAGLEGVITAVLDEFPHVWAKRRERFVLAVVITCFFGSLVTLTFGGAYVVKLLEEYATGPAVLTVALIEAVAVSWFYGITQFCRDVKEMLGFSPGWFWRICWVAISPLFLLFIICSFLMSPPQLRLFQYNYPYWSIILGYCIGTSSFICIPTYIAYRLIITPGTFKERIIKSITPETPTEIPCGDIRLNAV
Sequence of Mu-type opioid receptor (P35372 whole entry): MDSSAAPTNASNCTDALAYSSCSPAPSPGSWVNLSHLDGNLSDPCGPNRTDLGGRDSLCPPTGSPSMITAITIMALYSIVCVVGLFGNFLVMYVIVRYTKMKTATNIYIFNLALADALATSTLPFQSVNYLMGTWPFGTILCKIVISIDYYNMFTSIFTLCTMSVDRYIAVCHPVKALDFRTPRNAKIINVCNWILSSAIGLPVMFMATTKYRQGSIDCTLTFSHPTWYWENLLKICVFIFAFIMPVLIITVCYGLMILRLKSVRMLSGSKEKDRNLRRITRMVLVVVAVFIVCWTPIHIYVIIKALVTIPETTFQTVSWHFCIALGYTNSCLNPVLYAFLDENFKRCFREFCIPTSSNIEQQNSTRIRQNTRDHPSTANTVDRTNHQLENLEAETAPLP
T1 sequence (P14842 whole entry): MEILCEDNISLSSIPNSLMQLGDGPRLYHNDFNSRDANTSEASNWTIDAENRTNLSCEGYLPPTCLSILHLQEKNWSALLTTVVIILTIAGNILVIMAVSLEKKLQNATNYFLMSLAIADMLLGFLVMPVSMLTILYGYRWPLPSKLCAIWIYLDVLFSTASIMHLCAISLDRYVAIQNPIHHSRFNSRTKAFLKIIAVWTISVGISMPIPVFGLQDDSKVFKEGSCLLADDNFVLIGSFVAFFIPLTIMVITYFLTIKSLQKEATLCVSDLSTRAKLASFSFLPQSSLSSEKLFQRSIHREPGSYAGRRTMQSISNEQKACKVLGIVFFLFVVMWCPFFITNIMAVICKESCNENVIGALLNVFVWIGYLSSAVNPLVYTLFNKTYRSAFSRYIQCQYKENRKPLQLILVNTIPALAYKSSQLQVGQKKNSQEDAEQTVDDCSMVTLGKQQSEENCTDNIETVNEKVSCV
Sequence of 5-hydroxytryptamine receptor 6 (P50406 whole entry): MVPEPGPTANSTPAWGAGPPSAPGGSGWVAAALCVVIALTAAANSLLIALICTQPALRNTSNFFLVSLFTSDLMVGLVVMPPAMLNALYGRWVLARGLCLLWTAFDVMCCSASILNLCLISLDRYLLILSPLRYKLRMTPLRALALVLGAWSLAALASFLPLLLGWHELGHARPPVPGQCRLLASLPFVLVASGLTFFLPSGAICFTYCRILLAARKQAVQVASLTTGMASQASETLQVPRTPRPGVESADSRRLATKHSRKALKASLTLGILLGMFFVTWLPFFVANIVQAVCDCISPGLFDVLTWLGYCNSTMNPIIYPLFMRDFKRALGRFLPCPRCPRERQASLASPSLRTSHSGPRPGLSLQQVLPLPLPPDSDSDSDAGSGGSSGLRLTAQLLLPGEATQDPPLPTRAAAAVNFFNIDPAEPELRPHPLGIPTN
Sequence of Histamine H1 receptor (P35367 whole entry): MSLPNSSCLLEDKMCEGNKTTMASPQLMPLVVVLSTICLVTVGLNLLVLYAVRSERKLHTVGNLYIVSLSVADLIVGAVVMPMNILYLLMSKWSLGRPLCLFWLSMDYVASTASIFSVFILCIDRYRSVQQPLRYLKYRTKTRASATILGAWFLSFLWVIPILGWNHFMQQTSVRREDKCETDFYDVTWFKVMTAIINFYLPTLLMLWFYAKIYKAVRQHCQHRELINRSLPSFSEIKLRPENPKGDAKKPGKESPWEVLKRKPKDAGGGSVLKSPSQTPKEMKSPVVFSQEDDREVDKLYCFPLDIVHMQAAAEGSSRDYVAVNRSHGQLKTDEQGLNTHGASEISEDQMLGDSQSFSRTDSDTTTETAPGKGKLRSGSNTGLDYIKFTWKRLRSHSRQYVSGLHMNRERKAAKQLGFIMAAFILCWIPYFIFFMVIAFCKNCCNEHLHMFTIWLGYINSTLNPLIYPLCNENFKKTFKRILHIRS
Sequence of Histamine H2 receptor (P25021 whole entry): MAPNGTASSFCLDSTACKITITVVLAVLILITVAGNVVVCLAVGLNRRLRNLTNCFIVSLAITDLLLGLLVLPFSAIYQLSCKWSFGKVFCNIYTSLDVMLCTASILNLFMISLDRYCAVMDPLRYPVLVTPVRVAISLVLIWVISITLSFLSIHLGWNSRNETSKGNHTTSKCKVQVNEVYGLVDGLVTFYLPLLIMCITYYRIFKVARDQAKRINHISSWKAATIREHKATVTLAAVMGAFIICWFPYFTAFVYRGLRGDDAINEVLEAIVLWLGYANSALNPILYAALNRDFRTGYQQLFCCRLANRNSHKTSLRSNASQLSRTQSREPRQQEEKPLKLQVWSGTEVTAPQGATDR
Sequence of D(1A) dopamine receptor (P21728 whole entry): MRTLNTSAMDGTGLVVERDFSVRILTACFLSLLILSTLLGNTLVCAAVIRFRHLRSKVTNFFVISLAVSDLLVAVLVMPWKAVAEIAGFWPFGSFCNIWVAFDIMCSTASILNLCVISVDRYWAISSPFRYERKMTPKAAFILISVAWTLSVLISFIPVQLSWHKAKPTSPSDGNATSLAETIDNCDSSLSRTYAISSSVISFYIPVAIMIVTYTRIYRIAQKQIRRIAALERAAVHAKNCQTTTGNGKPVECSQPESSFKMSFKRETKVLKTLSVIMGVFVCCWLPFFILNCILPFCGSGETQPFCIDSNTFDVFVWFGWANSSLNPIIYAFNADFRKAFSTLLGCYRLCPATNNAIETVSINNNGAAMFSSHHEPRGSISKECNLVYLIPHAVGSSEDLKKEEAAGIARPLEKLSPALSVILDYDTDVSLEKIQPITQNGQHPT
Sequence of 5-hydroxytryptamine receptor 5A (P47898 whole entry): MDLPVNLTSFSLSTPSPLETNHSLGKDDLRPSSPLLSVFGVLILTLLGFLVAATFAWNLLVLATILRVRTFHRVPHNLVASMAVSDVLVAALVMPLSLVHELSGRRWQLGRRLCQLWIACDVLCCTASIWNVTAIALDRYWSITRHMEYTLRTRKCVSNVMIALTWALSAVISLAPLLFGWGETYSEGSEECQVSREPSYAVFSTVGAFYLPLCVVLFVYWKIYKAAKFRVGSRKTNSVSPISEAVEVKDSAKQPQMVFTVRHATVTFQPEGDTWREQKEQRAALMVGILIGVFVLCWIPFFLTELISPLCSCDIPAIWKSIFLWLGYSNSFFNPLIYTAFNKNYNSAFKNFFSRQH
Sequence of Histamine H3 receptor (Q9Y5N1 whole entry): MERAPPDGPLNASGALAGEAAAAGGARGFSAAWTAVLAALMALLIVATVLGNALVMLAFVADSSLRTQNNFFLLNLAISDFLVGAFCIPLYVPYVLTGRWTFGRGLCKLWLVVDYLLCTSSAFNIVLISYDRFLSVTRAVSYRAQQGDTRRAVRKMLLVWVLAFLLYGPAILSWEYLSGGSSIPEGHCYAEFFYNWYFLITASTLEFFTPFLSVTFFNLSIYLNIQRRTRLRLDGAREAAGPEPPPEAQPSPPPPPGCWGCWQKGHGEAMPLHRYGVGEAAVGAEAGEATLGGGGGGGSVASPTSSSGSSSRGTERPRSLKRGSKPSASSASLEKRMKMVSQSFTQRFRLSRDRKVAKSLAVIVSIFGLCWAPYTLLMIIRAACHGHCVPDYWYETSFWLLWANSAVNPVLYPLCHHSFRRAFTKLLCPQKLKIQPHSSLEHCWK

Structure (SMILES)	logP [1]	Ki [2] [µM]	Ki [4] [µM]	Ki [5] [µM]	Ki [6] [µM]	Ki [7] [µM]	also measured
COc1cccc([C@H](O)C2CCN(CCc3ccc(F)cc3)CC2)c1OC [VOLINANSERIN]	2.98	–	–	–	–	–	–
COc1ccc(CCN2CCC(C(O)c3cccc(OCCF)c3OC)CC2)cc1 (configuration not stated)	2.72	0.059	> 10	2.75	> 10	> 10	–
COc1c(OCCF)cccc1C(O)C1CCN(CCc2ccc(F)cc2)CC1 (configuration not stated)	2.8	–	0.706	0.299	> 10	3.89	Ki [3]: > 10 µM; Ki [21]: 0.148 µM; Ki [8]: 0.899 µM; Ki [9]: 0.544 µM; Ki [11]: > 10 µM; Ki [12]: 0.374 µM; Ki [13]: 3.18 µM; Ki [14]: > 10 µM; Ki [16]: 0.325 µM; Ki [17]: > 10 µM; Ki [18]: 3.52 µM; Ki [19]: > 10 µM; Ki [20]: > 10 µM
COc1c(OCCF)cccc1C(=O)C1CCN(CCc2ccc([N+](=O)[O-])cc2)CC1	2.71	0.118	1.83	1.05	> 10	> 10	–
COc1c(OCCF)cccc1C(O)C1CCN(CCc2ccc([N+](=O)[O-])cc2)CC1 (configuration not stated)	2.37	0.026	3.42	1.84	> 10	> 10	–
COc1c(OCCF)cccc1C(O)C1CCN(C(=O)Cc2ccccc2)CC1 (configuration not stated)	1.57	1.99	–	–	–	–	–
COc1cccc(C(O)C2CCN(Cc3ccc(F)cc3)CC2)c1OC (configuration not stated)	–	> 1	–	–	–	–	–
COc1ccc(CCN2CCC(C(O)c3cccc(OC)c3OC)CC2)cc1 (configuration not stated)	–	0.055	–	–	–	–	–
COc1cccc(C(O)C2CCN(CCc3ccc([N+](=O)[O-])cc3)CC2)c1OC (configuration not stated)	–	0.09	–	–	–	–	–
COc1ccc(CCN2CCC(C(=O)c3cccc(OCCF)c3OC)CC2)cc1	3.02	0.153	1.44	1.97	> 10	> 10	–
COc1c(O)cccc1C(O)C1CCN(CCc2ccc([N+](=O)[O-])cc2)CC1 (configuration not stated)	1.9	–	–	–	–	–	–

Continued by falling Ki [2], values first:

logP [1]	Ki [2] [µM]	Ki [4] [µM]	Ki [5] [µM]	Ki [6] [µM]	Ki [7] [µM]	Structure (SMILES)	also measured
3.08	0.00323	0.713	0.96	1.58	> 10	COc1c(OCCF)cccc1C(=O)C1CCN(CCc2ccc(F)cc2)CC1	Ki [3]: 3.83 µM; Ki [21]: 0.333 µM; Ki [8]: 1.41 µM; Ki [9]: 0.174 µM; Ki [10]: 7.4 µM; Ki [11]: > 10 µM; Ki [12]: 0.944 µM; Ki [13]: 1.76 µM; Ki [14]: > 10 µM; Ki [15]: 0.146 µM; Ki [16]: 0.55 µM; Ki [17]: 0.863 µM; Ki [18]: 3.09 µM; Ki [19]: > 10 µM; Ki [20]: > 10 µM
–	0.00206	–	–	–	–	COc1c(OCCF)cccc1C(O)C1CCN(CCc2ccc(N)cc2)CC1 (configuration not stated)	–
2.92	0.00163	–	–	–	–	COc1c(OCCF)cccc1C(O)C1CCN(CCc2ccccc2)CC1 (configuration not stated)	–
–	0.00134	–	–	–	–	COc1c(O)cccc1C(=O)C1CCN(CCc2ccc(F)cc2)CC1	–
2.27	0.00124	–	–	–	–	COc1c(O)cccc1C(O)C1CCN(CCc2ccc(F)cc2)CC1 (configuration not stated)	–
2.8	0.00072	1.06	0.32	6.81	3.84	COc1c(OCCF)cccc1[C@H](O)C1CCN(CCc2ccc(F)cc2)CC1	Ki [3]: 2.69 µM; Ki [8]: 3.83 µM; Ki [9]: 0.442 µM; Ki [10]: 7.42 µM; Ki [11]: > 10 µM; Ki [12]: 0.509 µM; Ki [13]: 2.43 µM; Ki [14]: > 10 µM; Ki [15]: 0.335 µM; Ki [16]: 0.5 µM; Ki [17]: > 10 µM; Ki [18]: 2.21 µM; Ki [19]: > 10 µM; Ki [20]: > 10 µM
2.15	0.00072	–	–	–	–	O=C(c1ccc(F)cc1)C1CCN(CCn2c(=S)[nH]c3ccccc3c2=O)CC1 [ALTANSERIN]	Ki [22]: 0.00013 µM; Ki [23]: 0.062 µM
–	0.00031	–	–	–	–	COc1cccc(C(O)C2CCN(CCc3ccc(C)cc3)CC2)c1OC (configuration not stated)	–
–	0.00025	–	–	–	–	COc1c(O)cccc1[C@H](O)C1CCN(CCc2ccc(F)cc2)CC1	–

Source: ChEMBL document CHEMBL1153452, “Synthesis and in vitro affinities of various MDL 100907 derivatives as potential 18F-radioligands for 5-HT2A receptor imaging with PET” (Bioorg Med Chem, 2009)
